One data set has as its target T1, human EAAT3 (Homo sapiens, UniProt P43005).
T1 construct: expressed in transfected cells
T1 sequence (P43005 1-524): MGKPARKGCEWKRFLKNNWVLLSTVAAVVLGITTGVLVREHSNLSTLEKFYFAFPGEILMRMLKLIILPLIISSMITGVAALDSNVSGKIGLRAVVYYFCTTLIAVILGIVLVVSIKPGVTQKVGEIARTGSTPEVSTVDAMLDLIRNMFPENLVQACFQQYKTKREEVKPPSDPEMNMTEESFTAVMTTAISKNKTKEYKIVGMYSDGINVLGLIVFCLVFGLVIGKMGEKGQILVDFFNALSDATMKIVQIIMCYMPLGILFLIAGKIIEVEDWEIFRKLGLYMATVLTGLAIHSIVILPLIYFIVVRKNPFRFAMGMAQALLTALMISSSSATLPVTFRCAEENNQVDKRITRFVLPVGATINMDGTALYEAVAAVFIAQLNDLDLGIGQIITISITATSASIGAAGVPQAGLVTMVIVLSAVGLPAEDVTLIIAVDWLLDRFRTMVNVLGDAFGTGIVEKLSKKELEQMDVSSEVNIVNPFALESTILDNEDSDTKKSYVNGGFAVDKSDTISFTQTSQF
The data set can be described thus: FLIPR Membrane Potential (FMP) assay, antagonist potency at human EAAT3. The class given is cell-based. The following applies: HEK-293 cells stably expressing human EAAT3; L-glutamate as agonist at EC80; antagonist applied 15 min before agonist; Kb by Cheng-Prusoff from IC50. On the procedure: The FLIPR Membrane Potential (FMP) Assay
HEK-293 cells stably expressing human EAAT3 were seeded at 55 000 cells/well in growth medium (DMEM glutamate free (Invitrogen 11960-044), 1% Pen Strep (10 ml/1 GIBCO BRL N°15140-023), 10% FCS non dialysed heat inactivated, 5 mg/l puromycin) in poly-D-lysine treated 96-well black microtiter plates with clear-bottom. After 24 h, the growth medium was removed and 100 μl/well of Krebs buffer (140 mM NaCl, 4.7 mM KCl, 2.5 mM CaCl2, 1.2 mM MgCl2, 11 mM HEPES, 10 mM D-glucose, pH=7.4) added. The cells were then loaded by adding 100 μl/well FMP assay dye (FLIPR Membrane Potential assay reagent, Molecular Devices). The 96-well plates were then incubated at 37° C. for 1 h. The depolarization of the cells will cause more dye to enter in the cells, where it will bind to intracellular proteins and lipids and cause an increase in the fluorescence signal. Antagonist potency at human EAAT3 was determined by using L-glutamate as agonist at a concentration which gives 80% of the maximum response. The antagonists were applied 15 min before the application of the agonist L-glutamate. The assays were performed at room temperature and measurements done by using a Fluorometric Imaging Plate Reader (FLIPR, Molecular Devices) and filter #2. Responses were measured as peak increase in fluorescence minus basal (i.e. fluorescence without addition of L-glutamate). Kb was determined using the Cheng-Prusoff equation Kb=IC50/[1+(A/EC50)], where IC50 is the concentration of the antagonist producing 50% inhibition, A is the concentration of the agonist against which the IC50 is being determined (at EC80) and EC50 is the concentration of the agonist producing 50% […].

In general, Kb refers to the affinity of an antagonist, worked out from how it opposes an agonist. A higher Kb goes with lower antagonist affinity. The term melting point denotes the temperature, or range, at which the solid turns liquid.

In the case of `CC(C)c1nccn1-c1cc(C(=O)NC2(C)CCS(=O)(=O)C2)cc(-c2ccc(Cl)cc2)c1` (racemic) [Example 38, (RS)-3-(4-Chlorophenyl)-N-(3-methyl-1,1-dioxothiolan-3-yl)-5-(2-propan-2-ylimidazol-1-yl)-benzamide], the melting point was determined as 112 °C. Further, the antagonist equilibrium constant (Kb) on human EAAT3 came to 220 nM. The like results for `CC1(NC(=O)c2cc(-c3ccc(Cl)cc3)cc(-n3ccnc3C3CC3)c2)CCS(=O)(=O)C1` (racemic) [Example 39, (RS)-3-(4-chlorophenyl)-5-(2-cyclopropylimidazol-1-yl)-N-(3-methyl-1,1-dioxothiolan-3-yl)-benzamide] were, in that order, 115 °C and 180 nM. In turn, `CC(C)c1nccn1-c1cc(C(=O)NC(C)(C)C)cc(-c2ccc(Cl)cc2)c1` [Example 1, N-tert-Butyl-3-(4-chlorophenyl)-5-(2-propan-2-ylimidazol-1-yl)-benzamide] displayed a Kb at human EAAT3 of 180 nM. That is a sub-micromolar value. As for `CC(C)(C)NC(=O)c1cc(-c2ccc(Cl)cc2)cc(-n2ccnc2)c1` [Example 2, N-tert-Butyl-3-(4-chlorophenyl)-5-imidazol-1-ylbenzamide], the Kb on human EAAT3 came out at 230 nM. Take `Cc1nccn1-c1cc(C(=O)NC(C)(C)C)cc(-c2ccc(Cl)cc2)c1` [Example 3, N-tert-Butyl-3-(4-chlorophenyl)-5-(2-methylimidazol-1-yl)-benzamide]: the melting point was found to be 220 °C. The antagonist equilibrium constant (Kb) on human EAAT3 was 190 nM.

Consider `CCc1nccn1-c1cc(C(=O)NC(C)(C)C)cc(-c2ccc(Cl)cc2)c1` [Example 4, N-tert-Butyl-3-(4-chlorophenyl)-5-(2-ethylimidazol-1-yl)-benzamide], for which the antagonist equilibrium constant (Kb) at human EAAT3 was determined as 180 nM. The same measure, in the same setting: the figure for `CC(C)(C)NC(=O)c1cc(-c2ccc(Cl)cc2)cc(-n2ccnc2C2CC2)c1` [Example 5, N-tert-Butyl-3-(4-chlorophenyl)-5-(2-cyclopropylimidazol-1-yl)-benzamide] is 120 nM. On to `CC(C)c1nccn1-c1cc(C(=O)NC(C)(C)C)cc(-c2ccc(F)cc2)c1` [Example 6, N-tert-Butyl-3-(4-fluorophenyl)-5-(2-propan-2-ylimidazol-1-yl)-benzamide], for which the melting point is 224 °C. Besides, the Kb at human EAAT3 came to 76 nM. Take `CC(C)c1nccn1-c1cc(C(=O)NC(C)(C)C(F)(F)F)cc(-c2ccc(Cl)cc2)c1` [Example 7, 3-(4-Chlorophenyl)-5-(2-propan-2-ylimidazol-1-yl)-N-(1,1,1-trifluoro-2-methylpropan-2-yl)-benzamide]: the melting point was determined as 115.5 °C. Moreover, the Kb on human EAAT3 worked out at 200 nM.

`CC(C)c1nccn1-c1cc(C(=O)NC(C)(C)C2CC2)cc(-c2ccc(Cl)cc2)c1` [Example 8, 3-(4-Chlorophenyl)-N-(2-cyclopropylpropan-2-yl)-5-(2-propan-2-ylimidazol-1-yl)-benzamide] displayed a melting point of 189 °C. The Kb at human EAAT3 amounted to 230 nM. The matching figures for `CCc1nccn1-c1cc(C(=O)NC(C)(C)C2CC2)cc(-c2ccc(Cl)cc2)c1` [Example 9, 3-(4-Chlorophenyl)-N-(2-cyclopropylpropan-2-yl)-5-(2-ethylimidazol-1-yl)-benzamide]: 183 °C and 220 nM. The like results for `CCc1nccn1-c1cc(C(=O)NC(C)(C)C)cc(-c2ccc(F)cc2)c1` [Example 10, N-tert-Butyl-3-(2-ethylimidazol-1-yl)-5-(4-fluorophenyl)-benzamide] were, in that order, 238 °C and 110 nM. For `Cc1nccn1-c1cc(C(=O)NC(C)(C)C2CC2)cc(-c2ccc(Cl)cc2)c1` [Example 11, 3-(4-Chlorophenyl)-N-(2-cyclopropylpropan-2-yl)-5-(2-methylimidazol-1-yl)-benzamide], the melting point was found to be 180 °C. At human EAAT3, the antagonist equilibrium constant (Kb) was 170 nM. The matching figures for `Cc1nccn1-c1cc(C(=O)NC(C)(C)C)cc(-c2ccc(F)cc2)c1` [Example 12, N-tert-Butyl-3-(4-fluorophenyl)-5-(2-methylimidazol-1-yl)-benzamide]: 208 °C and 130 nM.

Compound `CC(C)(NC(=O)c1cc(-c2ccc(Cl)cc2)cc(-n2ccnc2C2CC2)c1)C1CC1` [Example 13, 3-(4-Chlorophenyl)-5-(2-cyclopropylimidazol-1-yl)-N-(2-cyclopropyl-propan-2-yl)-benzamide] registered a melting point of 90 °C. At human EAAT3, this compound yielded a Kb of 310 nM. The like results for `Cc1nccn1-c1cc(C(=O)NC(C)(C)C(F)(F)F)cc(-c2ccc(Cl)cc2)c1` [Example 14, 3-(4-Chlorophenyl)-5-(2-methylimidazol-1-yl)-N-(1,1,1-trifluoro-2-methylpropan-2-yl)-benzamide] were, in that order, 199.5 °C and 130 nM. The like results for `CC(C)(NC(=O)c1cc(-c2ccc(Cl)cc2)cc(-n2ccnc2C2CC2)c1)C(F)(F)F` [Example 15, 3-(4-Chlorophenyl)-5-(2-cyclopropylimidazol-1-yl)-N-(1,1,1-trifluoro-2-methylpropan-2-yl)-benzamide] were, in that order, 101.5 °C and 150 nM. The matching figures for `CC(C)(C)NC(=O)c1cc(-c2ccc(F)cc2)cc(-n2ccnc2C2CC2)c1` [Example 16, N-tert-Butyl-3-(2-cyclopropylimidazol-1-yl)-5-(4-fluorophenyl)-benzamide]: 250.5 °C and 130 nM. In turn, `CC(C)c1nccn1-c1cc(C(=O)NC(C)(C)C2CC2)cc(-c2ccc(F)cc2)c1` [Example 17, N-(2-Cyclopropylpropan-2-yl)-3-(4-fluorophenyl)-5-(2-propan-2-ylimidazol-1-yl)-benzamide] registered a melting point of 80 °C. Besides, the antagonist equilibrium constant (Kb) at human EAAT3 amounted to 120 nM.

In turn, `CCc1nccn1-c1cc(C(=O)NC(C)(C)C2CC2)cc(-c2ccc(F)cc2)c1` [Example 18, N-(2-Cyclopropylpropan-2-yl)-3-(2-ethylimidazol-1-yl)-5-(4-fluorophenyl)-benzamide] came in with a melting point of 70 °C. For the same compound, the antagonist dissociation constant (Kb) on human EAAT3 came out at 170 nM. In the case of `Cc1nccn1-c1cc(C(=O)NC(C)(C)C2CC2)cc(-c2ccc(F)cc2)c1` [Example 19, N-(2-Cyclopropylpropan-2-yl)-3-(4-fluorophenyl)-5-(2-methylimidazol-1-yl)-benzamide], the melting point is 184 °C. The compound also had a Kb on human EAAT3 of 290 nM. `CC(C)(NC(=O)c1cc(-c2ccc(F)cc2)cc(-n2ccnc2C2CC2)c1)C1CC1` [Example 20, 3-(2-Cyclopropylimidazol-1-yl)-N-(2-cyclopropylpropan-2-yl)-5-(4-fluorophenyl)-benzamide]: the melting point is 83 °C. The compound further had a Kb on human EAAT3 of 33 nM.

In turn, `CC(C)c1nccn1-c1cc(C(=O)NC(C)(C)C)cc(-c2ccc(C(F)(F)F)cc2)c1` [Example 21, N-tert-Butyl-3-(2-propan-2-ylimidazol-1-yl)-5-[4-(trifluoromethyl)-phenyl]-benzamide] returned a melting point of 96.5 °C. Further, the Kb at human EAAT3 turned out to be 180 nM. The matching figures for `Cc1ccc(-c2cc(C(=O)NC(C)(C)C)cc(-n3ccnc3C(C)C)c2)cc1F` [Example 22, N-tert-Butyl-3-(3-fluoro-4-methylphenyl)-5-(2-propan-2-ylimidazol-1-yl)-benzamide]: 98 °C and 120 nM.

`CC(C)c1nccn1-c1cc(C(=O)NC(C)(C)C)cc(-c2ccc(F)c(F)c2)c1` [Example 23, N-tert-Butyl-3-(3,4-difluorophenyl)-5-(2-propan-2-ylimidazol-1-yl)-benzamide] showed a melting point of 91.5 °C. Also, the antagonist dissociation constant (Kb) at human EAAT3 came to 150 nM. In turn, `CC(C)c1nccn1-c1cc(C(=O)NC(C)(C)C)cc(-c2ccc(Cl)c(F)c2)c1` [Example 24, N-tert-Butyl-3-(4-chloro-3-fluorophenyl)-5-(2-propan-2-ylimidazol-1-yl)-benzamide] came in with a melting point of 98 °C. Moreover, the Kb on human EAAT3 is 190 nM. For the compound `CC(C)c1nccn1-c1cc(C(=O)NC(C)(C)C)cc(-c2ccc(C3CC3)cc2)c1` [Example 25, N-tert-Butyl-3-(4-cyclopropylphenyl)-5-(2-propan-2-ylimidazol-1-yl)-benzamide], the melting point came to 95 °C. The compound also gave a Kb on human EAAT3 of 210 nM.
